Laboratory results: patent US12594276B2, “Inhibitors of human immunodeficiency virus replication” (ViiV Healthcare UK (No.5) Limited, priority 2024, dated 2026)

Tests used:
[1] = test system: recombinant NL4-3 virus (nef section replaced with Renilla luciferase gene) in MT-2 cells; assay: HIV cell culture assay (antiviral activity, luciferase readout); assay type: cell-based; conditions: Renilla, NL43, MT-2 cells infected for 4-5 days with recombinant NL4-3 Renilla luciferase virus
Summary of the method: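 Antiviral EC50 derived from luciferase signal using the exponential median effect equation. Infection of MT-2 cells ran 4-5 days alongside serial dilutions of compound, with virus generated by proviral clone transfection of 293T cells.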

[2] = Compound cytotoxicity, XTT-based colorimetric assay; assay type: cell-based; conditions: human; uninfected MT2 cells, day 4, XTT; read-out: CC50
Summary of the method: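 Uninfected MT2 cells were treated with compound under the same protocol as the antiviral assay. Viability was read on day 4 with an XTT colorimetric assay, from which CC50 values were derived.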

Structure (SMILES): Cc1cc(C2(F)CCC(F)(F)CC2)nc2nc([C@H](Cc3cc(F)cc(F)c3)NC(=O)Cn3nc(C(F)(F)F)c4c3C(F)(F)[C@@H]3C[C@H]43)n(-c3ccc(Cl)c4c(NS(C)(=O)=O)nn(CCN5C[C@H](F)C[C@H](F)C5)c34)c(=O)c12 (atropisomer, axis not shown; (P)) [Example 569, N-[(1S)-1-[(3P)-3-(4-chloro-1-{2-[(3R,5S)-3,5-difluoropiperidin-1-yl]ethyl}-3-methanesulfonamido-1H-indazol-7-yl)-5-methyl-4-oxo-7-(1,4,4-trifluorocyclohexyl)-3H,4H-pyrido[2,3-d]pyrimidin-2-yl]-2-(3,5-difluorophenyl)ethyl]-2-[(2S,4R)-5,5-difluoro-9-(trifluoromethyl)-7,8-diazatricyclo[4.3.0.0^2,^4]nona-1(6),8-dien-7-yl]acetamide]
- EC50 [1]: 0.012 nM
- CC50 at 4 days [2]: > 20 nM

Structure (SMILES): Cc1cc(C2(F)CCC(F)(F)CC2)nc2nc([C@H](Cc3cc(F)cc(F)c3)NC(=O)Cn3nc(C(F)F)c4c3C(F)(F)[C@@H]3C[C@H]43)n(-c3ccc(Cl)c4c(NS(C)(=O)=O)nn(CCN5CCO[C@@H](C(C)C)C5)c34)c(=O)c12 (atropisomer, axis not shown; (P)) [Example 574, N-[(1S)-1-[(3P)-3-(4-chloro-3-methanesulfonamido-1-{2-[(2S)-2-(propan-2-yl)morpholin-4-yl]ethyl}-1H-indazol-7-yl)-5-methyl-4-oxo-7-(1,4,4-trifluorocyclohexyl)-3H,4H-pyrido[2,3-d]pyrimidin-2-yl]-2-(3,5-difluorophenyl)ethyl]-2-[(2S,4R)-9-(difluoromethyl)-5,5-difluoro-7,8-diazatricyclo[4.3.0.0^2,^4]nona-1(6),8-dien-7-yl]acetamide]
- EC50 [1]: 0.019 nM
- CC50 at 4 days [2]: > 20 nM

Structure (SMILES): COCCCn1nc(NS(C)(=O)=O)c2c(Cl)ccc(-n3c([C@H](Cc4cc(F)cc(F)c4)NC(=O)Cn4nc(C(F)F)c5c4C(F)(F)[C@@H]4C[C@H]54)nc4nc(C5CCC(F)(F)CC5)cc(CN5CC(OC)C5)c4c3=O)c21 (atropisomer, axis not shown; (P)) [Example 604, N-[(1S)-1-[(3P)-3-[4-chloro-3-methanesulfonamido-1-(3-methoxypropyl)-1H-indazol-7-yl]-7-(4,4-difluorocyclohexyl)-5-[(3-methoxyazetidin-1-yl)methyl]-4-oxo-3H,4H-pyrido[2,3-d]pyrimidin-2-yl]-2-(3,5-difluorophenyl)ethyl]-2-[(2S,4R)-9-(difluoromethyl)-5,5-difluoro-7,8-diazatricyclo[4.3.0.0^2,^4]nona-1(6),8-dien-7-yl]acetamide]
- EC50 [1]: 0.011 nM
- CC50 at 4 days [2]: > 20 nM

Structure (SMILES): Cc1cc(C2(F)CCC(F)(F)CC2)nc2nc([C@H](Cc3cc(F)cc(F)c3)NC(=O)Cn3nc(C4CC4)c4c3C[C@@H]3C[C@H]43)n(-c3ccc(Cl)c4c(NS(C)(=O)=O)nn(CCN5CCCC5=O)c34)c(=O)c12 (relative stereo) [Example 738, N-[(1S)-1-[(3P)-3-{4-chloro-3-methanesulfonamido-1-[2-(2-oxopyrrolidin-1-yl)ethyl]-1H-indazol-7-yl}-5-methyl-4-oxo-7-(1,4,4-trifluorocyclohexyl)-3H,4H-pyrido[2,3-d]pyrimidin-2-yl]-2-(3,5-difluorophenyl)ethyl]-2-[(2R*,4R*)-9-cyclopropyl-7,8-diazatricyclo[4.3.0.0^2,^4]nona-1(6),8-dien-7-yl]acetamide]
- EC50 [1]: 0.043 nM
- CC50 at 4 days [2]: > 20 nM

Structure (SMILES): Cc1cc(C2(F)CCC(F)(F)CC2)nc2nc([C@H](Cc3cc(F)cc(F)c3)NC(=O)Cn3nc(C(F)F)c4c3C[C@@H]3C[C@H]43)n(-c3ccc(Cl)c4c(NS(C)(=O)=O)nn(CCN5C[C@H](F)C[C@H](F)C5)c34)c(=O)c12 (atropisomer, axis not shown; (P)) [Example 571, N-[(1S)-1-[(3P)-3-(4-chloro-1-{2-[(3R,5S)-3,5-difluoropiperidin-1-yl]ethyl}-3-methanesulfonamido-1H-indazol-7-yl)-5-methyl-4-oxo-7-(1,4,4-trifluorocyclohexyl)-3H,4H-pyrido[2,3-d]pyrimidin-2-yl]-2-(3,5-difluorophenyl)ethyl]-2-[(2S,4S)-9-(difluoromethyl)-7,8-diazatricyclo[4.3.0.0^2,^4]nona-1(6),8-dien-7-yl]acetamide]
- EC50 [1]: 0.014 nM
- CC50 at 4 days [2]: > 20 nM

Structure (SMILES): CS(=O)(=O)Nc1nn(CCOCC(F)(F)F)c2c(-n3c([C@H](Cc4cc(F)cc(F)c4)NC(=O)Cn4nc(C(F)F)c5c4C(F)(F)[C@@H]4C[C@H]54)nc4nc(C5CCC(F)(F)CC5)cc(C(F)F)c4c3=O)ccc(Cl)c12 (atropisomer, axis not shown; (P)) [Example 155, N-[(1S)-1-[(3P)-3-{4-chloro-3-methanesulfonamido-1-[2-(2,2,2-trifluoroethoxy)ethyl]-1H-indazol-7-yl}-7-(4,4-difluorocyclohexyl)-5-(difluoromethyl)-4-oxo-3H,4H-pyrido[2,3-d]pyrimidin-2-yl]-2-(3,5-difluorophenyl)ethyl]-2-[(2S,4R)-9-(difluoromethyl)-5,5-difluoro-7,8-diazatricyclo[4.3.0.0^2,^4]nona-1(6),8-dien-7-yl]acetamide]
- EC50 [1]: 0.027 nM
- CC50 at 4 days [2]: > 50 nM

Structure (SMILES): Cc1cc(C2(F)CCC(F)(F)CC2)nc2nc([C@H](Cc3cc(F)cc(F)c3)NC(=O)Cn3nc(C4CC4)c4c3C[C@@H]3C[C@H]43)n(-c3ccc(Cl)c4c(NS(C)(=O)=O)nn(CCN5CC(C)(C)OC(C)(C)C5)c34)c(=O)c12 (atropisomer, axis not shown; (P)) [Example 504, N-[(1S)-1-[(3P)-3-{4-chloro-3-methanesulfonamido-1-[2-(2,2,6,6-tetramethylmorpholin-4-yl)ethyl]-1H-indazol-7-yl}-5-methyl-4-oxo-7-(1,4,4-trifluorocyclohexyl)-3H,4H-pyrido[2,3-d]pyrimidin-2-yl]-2-(3,5-difluorophenyl)ethyl]-2-[(2S,4S)-9-cyclopropyl-7,8-diazatricyclo[4.3.0.0^2,^4]nona-1(6),8-dien-7-yl]acetamide]
- EC50 [1]: 0.049 nM
- CC50 at 4 days [2]: > 20 nM

Structure (SMILES): COCCCn1nc(NS(C)(=O)=O)c2c(Cl)ccc(-n3c([C@H](Cc4cc(F)cc(F)c4)NC(=O)Cn4nc(C(F)F)c5c4C(F)(F)[C@@H]4C[C@H]54)nc4nc(C5CCC(F)(F)CC5)cc(NCCN5CCOC(C)(C)C5)c4c3=O)c21 (atropisomer, axis not shown; (P)) [Example 476, N-[(1S)-1-[(3P)-3-[4-chloro-3-methanesulfonamido-1-(3-methoxypropyl)-1H-indazol-7-yl]-7-(4,4-difluorocyclohexyl)-5-{[2-(2,2-dimethylmorpholin-4-yl)ethyl]amino}-4-oxo-3H,4H-pyrido[2,3-d]pyrimidin-2-yl]-2-(3,5-difluorophenyl)ethyl]-2-[(2S,4R)-9-(difluoromethyl)-5,5-difluoro-7,8-diazatricyclo[4.3.0.0^2,^4]nona-1(6),8-dien-7-yl]acetamide]
- EC50 [1]: 0.005 nM
- CC50 at 4 days [2]: > 20 nM

Structure (SMILES): CC1(F)CCN(CCn2nc(NS(C)(=O)=O)c3c(Cl)ccc(-n4c([C@H](Cc5cc(F)cc(F)c5)NC(=O)Cn5nc(C(F)F)c6c5C(F)(F)[C@@H]5C[C@H]65)nc5nc(C6CCC(F)(F)CC6)cc(C(F)F)c5c4=O)c32)CC1 (atropisomer, axis not shown; (P)) [Example 290, N-[(1S)-1-[(3P)-3-{4-chloro-1-[2-(4-fluoro-4-methylpiperidin-1-yl)ethyl]-3-methanesulfonamido-1H-indazol-7-yl}-7-(4,4-difluorocyclohexyl)-5-(difluoromethyl)-4-oxo-3H,4H-pyrido[2,3-d]pyrimidin-2-yl]-2-(3,5-difluorophenyl)ethyl]-2-[(2S,4R)-9-(difluoromethyl)-5,5-difluoro-7,8-diazatricyclo[4.3.0.0^2,^4]nona-1(6),8-dien-7-yl]acetamide]
- EC50 [1]: 0.023 nM
- CC50 at 4 days [2]: > 50 nM

Structure (SMILES): Cc1cc(C2(F)CCC(F)(F)CC2)nc2nc([C@H](Cc3cc(F)cc(F)c3)NC(=O)Cn3nc(C4CC4)c4c3C[C@@H]3C[C@H]43)n(-c3ccc(Cl)c4c(NS(C)(=O)=O)nn([C@@H](C)CN5C[C@H](F)C[C@H](F)C5)c34)c(=O)c12 (relative stereo) [Example 754, N-[(1S)-1-[(3P)-3-{4-chloro-1-[(2S)-1-[(3R,5S)-3,5-difluoropiperidin-1-yl]propan-2-yl]-3-methanesulfonamido-1H-indazol-7-yl}-5-methyl-4-oxo-7-(1,4,4-trifluorocyclohexyl)-3H,4H-pyrido[2,3-d]pyrimidin-2-yl]-2-(3,5-difluorophenyl)ethyl]-2-[(2R*,4R*)-9-cyclopropyl-7,8-diazatricyclo[4.3.0.0^2,^4]nona-1(6),8-dien-7-yl]acetamide]
- EC50 [1]: 0.075 nM
- CC50 at 4 days [2]: > 20 nM

Structure (SMILES): CS(=O)(=O)Nc1nn(CCN2CCCCC2)c2c(-n3c([C@H](Cc4cc(F)cc(F)c4)NC(=O)Cn4nc(C(F)F)c5c4C(F)(F)[C@@H]4C[C@H]54)nc4nc(C5CCC(F)(F)CC5)ccc4c3=O)ccc(Cl)c12 (atropisomer, axis not shown; (P)) [Example 165, N-[(1S)-1-[(3P)-3-{4-chloro-3-methanesulfonamido-1-[2-(piperidin-1-yl)ethyl]-1H-indazol-7-yl}-7-(4,4-difluorocyclohexyl)-4-oxo-3H,4H-pyrido[2,3-d]pyrimidin-2-yl]-2-(3,5-difluorophenyl)ethyl]-2-[(2S,4R)-9-(difluoromethyl)-5,5-difluoro-7,8-diazatricyclo[4.3.0.0^2,^4]nona-1(6),8-dien-7-yl]acetamide]
- EC50 [1]: 0.031 nM
- CC50 at 4 days [2]: > 50 nM
